According to patent US20140163099A1, “ANTIMICROBIAL COMPOSITION” (TAKASAGO INTERNATIONAL CORPORATION, priority 2011, published 2014):
Converted amounts (≈) assume the structure as drawn.

Legend:
Assay type in all cases: cell-based
[1] = tested on: Escherichia coli (NBRC3972); experiment: Growth inhibition activity (MIC, agar) against aerobic bacteria; details: Escherichia coli; strain NBRC3972; Mueller Hinton Agar, 37 degrees C. overnight; read-out: MIC (Minimum Inhibitory Concentration)
Protocol: (§1) In the present invention, the growth inhibition activity, which is an indicator of the antimicrobial activity, is evaluated by determining the Minimum Inhibitory Concentration (MIC) with an agar or liquid medium.
(§2) Furthermore, the following bacteria were also used as other general aerobic bacteria: • Escherichia coli: Escherichia coli (NBRC3972) • Pseudomonas aeruginosa: Pseudomonas aeruginosa (NBRC13275) • Bacteria in intestines: Proteus vulgaris (NBRC3167) • Pneumobacillus: Klebsiella pneumoniae (NBRC13277) • Bacillus subtilis: Bacillus subtilis (NBRC3134)
(§3) The test strains were cultured in the liquid medium which the Bioresource center recommends, and then the test strains were subcultured to a Mueller Hinton Broth (Difco) at 30 degrees C. The grown bacteria were diluted to 10^6 CFU/ml with saline to adjust the bacteria fluids for inoculation.
(§4) Furthermore, in order to examine the growth inhibition activities against the bacteria by the above cooling agents, the concentration of the cooling agents: (3S)-CA20, (3R)-CA20, CA1, CA5, CA15, CA55 or CA MGH was diluted with ethanol to the required level of concentration for the determining the Minimum Inhibitory Concentration to produce the sample liquids.
(§5) Next, 100 μL of each sample liquid was added to 10 mL of a Mueller Hinton Agar (Difco) agar medium solution in a soluble state, and each agar medium solution was poured into a petri dish and solidified to prepare test plates having several concentrations of the sample liquids (several concentrations of the above cooling agents). Subsequently, 5 μL of the above bacteria fluids for inoculation were stamped on the test plates, and then the test plates were cultured at 37 degrees C. overnight.
(§6) In this way, the growth inhibition activities by (3S)-CA20, (3R)-CA20, CA1, CA5, CA15, CA55, CA MGH were examined. The minimum concentration of the cooling agent in which the growth of bacteria could not be confirmed was considered as the MIC (Minimum Inhibitory Concentration).
(§7) The minimum concentration of the cooling agent in which the grown strain could not be confirmed was considered as the MIC (Minimum Inhibitory Concentration).

[2] = tested on: Klebsiella pneumoniae (NBRC13277); experiment: as above; details: Klebsiella pneumoniae; strain NBRC13277; Mueller Hinton Agar, 37 degrees C. overnight; read-out: MIC (Minimum Inhibitory Concentration)
Protocol: as §1, §2, §3, §4, §5, §6, §7

[3] = tested on: Proteus vulgaris (NBRC3167); experiment: as above; details: Proteus vulgaris; strain NBRC3167; Mueller Hinton Agar, 37 degrees C. overnight; read-out: MIC (Minimum Inhibitory Concentration)
Protocol: as §1, §2, §3, §4, §5, §6, §7

[4] = tested on: Pseudomonas aeruginosa (NBRC13275); experiment: as above; details: Pseudomonas aeruginosa; strain NBRC13275; Mueller Hinton Agar, 37 degrees C. overnight; read-out: MIC (Minimum Inhibitory Concentration)
Protocol: as §1, §2, §3, §4, §5, §6, §7

[5] = tested on: Actinomyces naeslundii (JCM8350); experiment: Growth inhibition activity (MIC, agar) against anaerobic bacteria; details: Actinomyces naeslundii, JCM8350, 72 h, strain JCM8350; Trypticase Soy Broth agar, 37 degrees C. for 3 days; read-out: MIC (Minimum Inhibitory Concentration)
Protocol: as §1
(§8) In the test for growth inhibition activity, the following strains were used: • Acne bacteria: Propionibacterium acnes (JCM6473) and (ATCC6919) • Abscess bacteria: Bacteroides fragilis (GAI5560) • Cavity-causing bacteria: Streptococcus mutans (JCM5175), Actinomyces naeslundii (JCM8350) and Actinomyces viscosus (JCM8352) • Periodontal pathogen: Fusobacterium nucleatum (JCM6328), Porphyromonas gingivalis (JCM8525), Prevotella nigrescens (JCM6322)
(§9) The test strains were cultured in a GAM medium (Nissui Pharmaceutical Co., LTD), a Schaedler Broth (BBL) or a Trypticase Soy Broth (BBL) liquid medium, and then the grown bacteria were diluted in saline to prepare turbidity 0.5 McFarland of the bacteria fluids for inoculation. The bacteria were cultured at 37 degrees C. for 3 days under an anaerobic condition by using AnaeroPack® from MGC.
as §4, with “cooling agent,” for “cooling agents,”, “of concentrations” for “of concentration”
(§10) Next, 100 μL of each sample liquid was added to 10 mL of a Trypticase Soy Broth agar medium solution in a soluble state, and each agar medium solution was poured into a petri dish and solidified, to prepare the test plates. Subsequently, 5 μL of above the bacteria fluids for inoculation were stamped on the test plates, and then the test plates were cultured at 37 degrees C. for 3 days.
(§11) The minimum concentration of the cooling agent in which the growth of bacteria could not be confirmed was considered as the MIC (Minimum Inhibitory Concentration).
as §11

[6] = tested on: Actinomyces viscosus (JCM8352); experiment: as above; details: Actinomyces viscosus, 72 h; strain JCM8352; Trypticase Soy Broth agar, 37 degrees C. for 3 days; read-out: MIC (Minimum Inhibitory Concentration)
Protocol: as §1, §8, §9
as §4, with “cooling agent,” for “cooling agents,”, “of concentrations” for “of concentration”
as §10, §11, §11

[7] = tested on: Bacteroides fragilis (GAI5560); experiment: as above; details: Bacteroides fragilis, 72 h; strain GAI5560; Trypticase Soy Broth agar, 37 degrees C. for 3 days; read-out: MIC (Minimum Inhibitory Concentration)
Protocol: as §1, §8, §9
as §4, with “cooling agent,” for “cooling agents,”, “of concentrations” for “of concentration”
as §10, §11, §11

[8] = tested on: Prevotella nigrescens (JCM6322); experiment: as above; details: Prevotella nigrescens, JCM6322, 72 h, strain JCM6322; Trypticase Soy Broth agar, 37 degrees C. for 3 days; read-out: MIC (Minimum Inhibitory Concentration)
Protocol: as §1, §8, §9
as §4, with “cooling agent,” for “cooling agents,”, “of concentrations” for “of concentration”
as §10, §11, §11

[9] = tested on: Propionibacterium acnes (ATCC6919); experiment: as above; details: Cutibacterium acnes, ATCC6919, 72 h, strain ATCC6919; Trypticase Soy Broth agar, 37 degrees C. for 3 days; read-out: MIC (Minimum Inhibitory Concentration)
Protocol: as §1, §8, §9
as §4, with “cooling agent,” for “cooling agents,”, “of concentrations” for “of concentration”
as §10, §11, §11

[10] = tested on: Propionibacterium acnes (JCM6473); experiment: as above; details: Cutibacterium acnes, 72 h; strain JCM6473; Trypticase Soy Broth agar, 37 degrees C. for 3 days; read-out: MIC (Minimum Inhibitory Concentration)
Protocol: as §1, §8, §9
as §4, with “cooling agent,” for “cooling agents,”, “of concentrations” for “of concentration”
as §10, §11, §11

[11] = tested on: Streptococcus mutans (JCM5175); experiment: as above; details: Streptococcus mutans, 72 h; strain JCM5175; Trypticase Soy Broth agar, 37 degrees C. for 3 days; read-out: MIC (Minimum Inhibitory Concentration)
Protocol: as §1, §8, §9
as §4, with “cooling agent,” for “cooling agents,”, “of concentrations” for “of concentration”
as §10, §11, §11

[12] = tested on: Fusobacterium nucleatum (JCM6328); experiment: as above; details: 72 h, strain JCM6328, Trypticase Soy Broth agar, 37 degrees C. for 3 days, read-out: MIC (Minimum Inhibitory Concentration)
Protocol: as §1, §8, §9
as §4, with “cooling agent,” for “cooling agents,”, “of concentrations” for “of concentration”
as §10, §11, §11

Row | SMILES | MIC [1] [µg/mL] | MIC [2] [µg/mL] | MIC [3] [µg/mL] | MIC [4] [µg/mL] | MIC [5] [µg/mL] | MIC [6] [µg/mL] | MIC [7] [µg/mL] | MIC [8] [µg/mL] | MIC [9] [µg/mL] | MIC [10] [µg/mL] | MIC [11] [µg/mL] | MIC [12] [µg/mL]
1 | CC1CCC(C(C)C)C(OCC(C)(O)CO)C1 (stereo not drawn) [CA1, 2-methyl-3-(menthoxy)propane-1,2-diol] | > 1600 | 400 (≈ 1.64 mM) | > 1600 | > 1600 | 800 (≈ 3.27 mM) | < 50 | 100 (≈ 0.409 mM) | 200 (≈ 0.818 mM) | 400 (≈ 1.64 mM) | 400 (≈ 1.64 mM) | 800 (≈ 3.27 mM) | 800 (≈ 3.27 mM)
2 | CC1CCC(C(C)C)C(OCC(O)CO)C1 (stereo not drawn) [CA10, 3-menthoxypropane-1,2-diol, reference compound] | > 1600 | 800 (≈ 3.47 mM) | 1600 (≈ 6.95 mM) | > 1600 | 800 (≈ 3.47 mM) | < 50 | 100 (≈ 0.434 mM) | 200 (≈ 0.868 mM) | 800 (≈ 3.47 mM) | 800 (≈ 3.47 mM) | 800 (≈ 3.47 mM) | 800 (≈ 3.47 mM)
3 | CC1CCC(C(C)C)C(OCCCO)C1 (stereo not drawn) [CA15, 3-menthoxypropan-1-ol] | > 1600 | 200 (≈ 0.933 mM) | > 1600 | > 1600 | 400 (≈ 1.87 mM) | 200 (≈ 0.933 mM) | 100 (≈ 0.467 mM) | 100 (≈ 0.467 mM) | 400 (≈ 1.87 mM) | 200 (≈ 0.933 mM) | 400 (≈ 1.87 mM) | 400 (≈ 1.87 mM)
4 | CC1CCC(C(C)(C)O)C(O)C1 (stereo not drawn) [CA38, p-menthane-3,8-diol, reference compound] | > 1600 | > 1600 | > 1600 | > 1600 | > 1600 | > 1600 | 1600 (≈ 9.29 mM) | 1600 (≈ 9.29 mM) | > 1600 | > 1600 | > 1600 | > 1600
5 | CC1CCC(C(C)C)C(OCCOCCO)C1 (stereo not drawn) [CA55, 2-(2-menthoxyethoxy)ethanol] | > 1600 | 800 (≈ 3.27 mM) | > 1600 | > 1600 | 800 (≈ 3.27 mM) | 800 (≈ 3.27 mM) | 100 (≈ 0.409 mM) | 100 (≈ 0.409 mM) | 800 (≈ 3.27 mM) | 800 (≈ 3.27 mM) | 800 (≈ 3.27 mM) | 800 (≈ 3.27 mM)
6 | CNC(=O)C(C)(C(C)C)C(C)C [WS-23, N-methyl-2-isopropyl-2,3-dimethylbutanamide, reference compound] | > 1600 | > 1600 | > 1600 | > 1600 | > 1600 | > 1600 | > 1600 | > 1600 | > 1600 | > 1600 | > 1600 | –

Continued, values first:

Row | MIC [1] [µg/mL] | MIC [2] [µg/mL] | MIC [3] [µg/mL] | MIC [4] [µg/mL] | MIC [5] [µg/mL] | MIC [6] [µg/mL] | MIC [7] [µg/mL] | MIC [8] [µg/mL] | MIC [9] [µg/mL] | MIC [10] [µg/mL] | MIC [11] [µg/mL] | MIC [12] [µg/mL] | SMILES
7 | > 1600 | 200 (≈ 0.825 mM) | > 1600 | > 1600 | 100 (≈ 0.413 mM) | 100 (≈ 0.413 mM) | 100 (≈ 0.413 mM) | 100 (≈ 0.413 mM) | 200 (≈ 0.825 mM) | 200 (≈ 0.825 mM) | 200 (≈ 0.825 mM) | – | CC(O)CC(=O)OC1CC(C)CCC1C(C)C [(3S)-CA20, menthyl 3-hydroxybutanoate]
8 | > 1600 | 400 (≈ 2 mM) | 1600 (≈ 7.99 mM) | > 1600 | 800 (≈ 3.99 mM) | 200 (≈ 0.998 mM) | 200 (≈ 0.998 mM) | 200 (≈ 0.998 mM) | 400 (≈ 2 mM) | 400 (≈ 2 mM) | 800 (≈ 3.99 mM) | 400 (≈ 2 mM) | CC1CCC(C(C)C)C(OCCO)C1 (stereo not drawn) [CA5, 2-(menthoxy)ethanol]
9 | 800 (≈ 3.77 mM) | 50 (≈ 0.236 mM) | 100 (≈ 0.471 mM) | 800 (≈ 3.77 mM) | 200 (≈ 0.942 mM) | 200 (≈ 0.942 mM) | 50 (≈ 0.236 mM) | – | 100 (≈ 0.471 mM) | 200 (≈ 0.942 mM) | 100 (≈ 0.471 mM) | 100 (≈ 0.471 mM) | CC1CCC(C(C)C)C(OC(=O)C=O)C1 (stereo not drawn) [CA MGH, menthyl glyoxylate]
10 | 1600 (≈ 10.2 mM) | 1600 (≈ 10.2 mM) | 1600 (≈ 10.2 mM) | > 1600 | 1600 (≈ 10.2 mM) | 1600 (≈ 10.2 mM) | 1600 (≈ 10.2 mM) | 1600 (≈ 10.2 mM) | 1600 (≈ 10.2 mM) | 1600 (≈ 10.2 mM) | > 1600 | 1600 (≈ 10.2 mM) | CC1CCC(C(C)C)C(O)C1 (stereo not drawn) [l-menthol, menthol, reference compound]
